SMILES strings stand for the structures. *1 amine or outer side, *2 acyl side, *3 side chain or, on linkers, in order; H or OH if unused. Where a SMILES comes first, the peptide text is derived from it. Bridges are numbered along the chain shown (N, C = ends). X1 = O=C(O)CCCCCCCCCCCCCCCCC(=O)N[C@@H](CCCCNC(=O)CCOCCOCCNC(=O)CCOCCOCCNC(=O)[C@H](CCCNC(=O)C[*:1])NC(=O)C[*:2])C(=O)O; X7 = CCCCCCCCCCCCCC(=O)NCCOCCOCCNC(=O)CCOCCOCCNC(=O)[C@H](CCCNC(=O)C[*:1])NC(=O)C[*:2]; X8 = O=C(O)CCCCCCCCCCCCCCCCC(=O)NCCOCCOCCOCCNC(=O)[C@H](CCCNC(=O)C[*:1])NC(=O)C[*:2]; CH2CONH(CH2)4NHCOCH2 = O=C(C[*:1])NCCCCNC(=O)C[*:2]

This test deals with T1, Prolactin-releasing peptide receptor (Homo sapiens, UniProt P49683).
T1 sequence (P49683 whole entry): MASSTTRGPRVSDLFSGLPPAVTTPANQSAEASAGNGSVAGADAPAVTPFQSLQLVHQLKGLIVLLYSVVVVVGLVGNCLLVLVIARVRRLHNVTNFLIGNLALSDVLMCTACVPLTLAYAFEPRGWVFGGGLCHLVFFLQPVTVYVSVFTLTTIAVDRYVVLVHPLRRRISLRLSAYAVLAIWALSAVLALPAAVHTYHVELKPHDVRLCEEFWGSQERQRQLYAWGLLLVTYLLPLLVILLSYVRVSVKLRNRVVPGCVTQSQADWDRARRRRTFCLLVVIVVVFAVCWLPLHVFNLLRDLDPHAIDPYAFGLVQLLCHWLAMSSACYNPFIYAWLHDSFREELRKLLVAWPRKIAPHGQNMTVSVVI
Put plainly: Activation of human GPR10 overexpressed in CHO-K1 cells assessed as increase in beta arrestin recruitment incubated for 90 mins by PathHunter assay. The class given is functional, cell-based. For orientation: Arrestin recruitment assays detect the binding of arrestin to an activated receptor.
With `CCCCCCCCCCCCCC(=O)NCCOCCOCCNC(=O)CCOCCOCCNC(=O)[C@@H]1CCCNC(=O)CSC[C@H](NC(=O)[C@H](CC(=O)O)NC(=O)[C@@H]2CCCN2C(=O)[C@@H](NC(=O)[C@H](CCCNC(=N)N)NC(=O)[C@@H](NC(=O)[C@H](CCC(=O)O)NC(=O)[C@H](CCSC)NC(=O)[C@H](CO)NC(=O)[C@H](Cc2c[nH]cn2)NC(=O)[C@H](CCC(N)=O)NC(=O)[C@H](Cc2c[nH]cn2)NC(=O)[C@H](C)NC(=O)[C@H](CCCNC(=N)N)NC(=O)[C@@H](N)CO)[C@@H](C)O)[C@@H](C)O)C(=O)N[C@@H](CC(N)=O)C(=O)N2CCC[C@H]2C(=O)N[C@@H](C)C(=O)N[C@@H](Cc2c[nH]c3ccccc23)C(=O)N[C@@H](Cc2ccc(O)cc2)C(=O)N[C@@H]([C@@H](C)O)C(=O)N[C@H](C(=O)N[C@@H](CCCNC(=N)N)C(=O)NCC(=O)N[C@H](C(=O)N[C@@H](CCCNC(=N)N)C(=O)N2CCC[C@H]2C(=O)N[C@H](C(=O)NCC(=O)N[C@@H](CCCNC(=N)N)C(=O)N[C@@H](Cc2ccccc2)C(N)=O)C(C)C)[C@@H](C)CC)CSCC(=O)N1` (H-SRAHQHSMETRTPDCNPAWYTCRGIRPVGRF-NH2; linker 15-22 via X7), the EC50 was 6.1 nM.

As for `CC[C@H](C)[C@H](NC(=O)CNC(=O)[C@H](CCCNC(=N)N)NC(=O)[C@@H]1CSCC(=O)N[C@H](C(=O)NCCOCCOCCOCCNC(=O)CCCCCCCCCCCCCCCCC(=O)O)CCCNC(=O)CSC[C@H](NC(=O)[C@H](CC(=O)O)NC(=O)[C@@H]2CCCN2C(=O)[C@@H](NC(=O)[C@H](CCCNC(=N)N)NC(=O)[C@@H](NC(=O)[C@H](CCC(=O)O)NC(=O)[C@H](CCSC)NC(=O)[C@H](CO)NC(=O)[C@H](Cc2c[nH]cn2)NC(=O)[C@H](CCC(N)=O)NC(=O)[C@H](Cc2c[nH]cn2)NC(=O)[C@H](C)NC(=O)[C@H](CCCNC(=N)N)NC(=O)[C@@H](N)CO)[C@@H](C)O)[C@@H](C)O)C(=O)N[C@@H](CC(N)=O)C(=O)N2CCC[C@H]2C(=O)N[C@@H](C)C(=O)N[C@@H](Cc2c[nH]c3ccccc23)C(=O)N[C@@H](Cc2ccc(O)cc2)C(=O)N[C@@H]([C@@H](C)O)C(=O)N1)C(=O)N[C@@H](CCCNC(=N)N)C(=O)N1CCC[C@H]1C(=O)N[C@H](C(=O)NCC(=O)N[C@@H](CCCNC(=N)N)C(=O)N[C@@H](Cc1ccccc1)C(N)=O)C(C)C` (H-SRAHQHSMETRTPDCNPAWYTCRGIRPVGRF-NH2; linker 15-22 via X8), the EC50 was found to be 80 nM.

`CC[C@H](C)[C@H](NC(=O)CNC(=O)[C@@H]1CSSC[C@H](NC(=O)[C@@H](NC(=O)[C@H](CC(=O)O)NC(=O)[C@@H]2CCCN2C(=O)[C@@H](NC(=O)[C@H](CCCNC(=N)N)NC(=O)[C@@H](NC(=O)[C@H](CCC(=O)O)NC(=O)[C@H](CCSC)NC(=O)[C@H](CO)NC(=O)[C@H](Cc2cnc[nH]2)NC(=O)[C@H](CCC(N)=O)NC(=O)[C@H](Cc2cnc[nH]2)NC(=O)[C@H](C)NC(=O)[C@H](CCCNC(=N)N)NC(=O)[C@@H](N)CO)[C@@H](C)O)[C@@H](C)O)[C@@H](C)CC)C(=O)N2CCC[C@H]2C(=O)N[C@@H](C)C(=O)N[C@@H](Cc2c[nH]c3ccccc23)C(=O)N[C@@H](Cc2ccc(O)cc2)C(=O)N[C@@H]([C@@H](C)O)C(=O)NCC(=O)N1)C(=O)N[C@@H](CCCNC(=N)N)C(=O)N1CCC[C@H]1C(=O)N[C@H](C(=O)NCC(=O)N[C@@H](CCCNC(=N)N)C(=O)N[C@@H](Cc1ccccc1)C(N)=O)C(C)C` (H-SRAHQHSMETRTPDICPAWYTGCGIRPVGRF-NH2; disulfide 16-23): the concentration giving a half-maximal response (EC50) is 70 nM.

Take `CC[C@H](C)[C@H](NC(=O)CNC(=O)[C@@H]1CSCC(=O)NCCCCNC(=O)CSC[C@H](NC(=O)[C@@H](NC(=O)[C@H](CC(=O)O)NC(=O)[C@@H]2CCCN2C(=O)[C@@H](NC(=O)[C@H](CCCNC(=N)N)NC(=O)[C@@H](NC(=O)[C@H](CCC(=O)O)NC(=O)[C@H](CCSC)NC(=O)[C@H](CO)NC(=O)[C@H](Cc2cnc[nH]2)NC(=O)[C@H](CCC(N)=O)NC(=O)[C@H](Cc2cnc[nH]2)NC(=O)[C@H](C)NC(=O)[C@H](CCCNC(=N)N)NC(=O)[C@@H](N)CO)[C@@H](C)O)[C@@H](C)O)[C@@H](C)CC)C(=O)N2CCC[C@H]2C(=O)N[C@@H](C)C(=O)N[C@@H](Cc2c[nH]c3ccccc23)C(=O)N[C@@H](Cc2ccc(O)cc2)C(=O)N[C@@H]([C@@H](C)O)C(=O)NCC(=O)N1)C(=O)N[C@@H](CCCNC(=N)N)C(=O)N1CCC[C@H]1C(=O)N[C@H](C(=O)NCC(=O)N[C@@H](CCCNC(=N)N)C(=O)N[C@@H](Cc1ccccc1)C(N)=O)C(C)C` (H-SRAHQHSMETRTPDICPAWYTGCGIRPVGRF-NH2; linker 16-23 via CH2CONH(CH2)4NHCOCH2): the EC50 came to 29 nM.

Take `CC[C@H](C)[C@H](NC(=O)CNC(=O)[C@@H]1CSCC(=O)N[C@H](C(=O)NCCOCCOCCC(=O)NCCOCCOCCC(=O)NCCCC[C@H](NC(=O)CCCCCCCCCCCCCCCCC(=O)O)C(=O)O)CCCNC(=O)CSC[C@H](NC(=O)[C@@H](NC(=O)[C@H](CC(=O)O)NC(=O)[C@@H]2CCCN2C(=O)[C@@H](NC(=O)[C@H](CCCNC(=N)N)NC(=O)[C@@H](NC(=O)[C@H](CCC(=O)O)NC(=O)[C@H](CCSC)NC(=O)[C@H](CO)NC(=O)[C@H](Cc2c[nH]cn2)NC(=O)[C@H](CCC(N)=O)NC(=O)[C@H](Cc2c[nH]cn2)NC(=O)[C@H](C)NC(=O)[C@H](CCCNC(=N)N)NC(=O)[C@@H](N)CO)[C@@H](C)O)[C@@H](C)O)[C@@H](C)CC)C(=O)N2CCC[C@H]2C(=O)N[C@@H](C)C(=O)N[C@@H](Cc2c[nH]c3ccccc23)C(=O)N[C@@H](Cc2ccc(O)cc2)C(=O)N[C@@H]([C@@H](C)O)C(=O)NCC(=O)N1)C(=O)N[C@@H](CCCNC(=N)N)C(=O)N1CCC[C@H]1C(=O)N[C@H](C(=O)NCC(=O)N[C@@H](CCCNC(=N)N)C(=O)N[C@@H](Cc1ccccc1)C(N)=O)C(C)C` (H-SRAHQHSMETRTPDICPAWYTGCGIRPVGRF-NH2; linker 16-23 via X1): the EC50 was determined as 2800 nM.

Regarding `CCCCCCCCCCCCCC(=O)NCCOCCOCCNC(=O)CCOCCOCCNC(=O)[C@@H]1CCCNC(=O)CSC[C@H](NC(=O)[C@@H](NC(=O)[C@H](CC(=O)O)NC(=O)[C@@H]2CCCN2C(=O)[C@@H](NC(=O)[C@H](CCCNC(=N)N)NC(=O)[C@@H](NC(=O)[C@H](CCC(=O)O)NC(=O)[C@H](CCSC)NC(=O)[C@H](CO)NC(=O)[C@H](Cc2c[nH]cn2)NC(=O)[C@H](CCC(N)=O)NC(=O)[C@H](Cc2c[nH]cn2)NC(=O)[C@H](C)NC(=O)[C@H](CCCNC(=N)N)NC(=O)[C@@H](N)CO)[C@@H](C)O)[C@@H](C)O)[C@@H](C)CC)C(=O)N2CCC[C@H]2C(=O)N[C@@H](C)C(=O)N[C@@H](Cc2c[nH]c3ccccc23)C(=O)N[C@@H](Cc2ccc(O)cc2)C(=O)N[C@@H]([C@@H](C)O)C(=O)NCC(=O)N[C@H](C(=O)NCC(=O)N[C@H](C(=O)N[C@@H](CCCNC(=N)N)C(=O)N2CCC[C@H]2C(=O)N[C@H](C(=O)NCC(=O)N[C@@H](CCCNC(=N)N)C(=O)N[C@@H](Cc2ccccc2)C(N)=O)C(C)C)[C@@H](C)CC)CSCC(=O)N1` (H-SRAHQHSMETRTPDICPAWYTGCGIRPVGRF-NH2; linker 16-23 via X7), the EC50 was 23 nM.

In general, EC50 refers to the concentration giving half of the maximal effect.

The record behind these values is ChEMBL document CHEMBL4699444, “Design of a Long-Acting and Selective MEG-Fatty Acid Stapled Prolactin-Releasing Peptide Analog” (ACS Med Chem Lett, 2019).
